One data set concerns Ps. aeruginosa, 32121. As to the kind of experiment: Minimum Inhibitory Concentration, broth dilution method. The format is cell-based. Particulars: Pseudomonas aeruginosa, 10^6 cells/ml, 37° C., 18 hours. Here is the method: (§1) |Minimum Inhibitory Concentration (MIC, μg/ml) |(Broth dilution method, inoculated amount: 10^6 cells/ml, incubated |at 37° C. for 18 hours)
In general terms: Broth dilution looks for growth in wells or tubes with falling amounts of substance.

Another data set relates to Pr. vulgaris, 08601. The description is as above. The format is cell-based. As to conditions: Proteus vulgaris, 10^6 cells/ml, 37° C., 18 hours. The protocol:
as §1

For the next data set, the system named is Ps. putida, IID 5121. The data set is described as above. Format: cell-based. As to conditions: Pseudomonas putida, IID5121, 10^6 cells/ml, 37° C., 18 hours. Here is the method:
as §1

A further data set has as its system Ps. aeruginosa, 32104. Described as above. The format is cell-based. Particulars: Pseudomonas aeruginosa, 10^6 cells/ml, 37° C., 18 hours. The protocol:
as §1

The next data set has as its system S. aureus, 209P. The data set is described as above. The format is cell-based. Particulars: Staphylococcus aureus, 10^6 cells/ml, 37° C., 18 hours. The protocol:
as §1

In the next data set the test system is Ps. aeruginosa, 32234. The data set is described as above. Format: cell-based. Particulars: Pseudomonas aeruginosa, 10^6 cells/ml, 37° C., 18 hours. Here is the method:
as §1

For another data set, the system named is Ser. marcescens, 10104. The description is as above. Format: cell-based. Particulars: Serratia marcescens, 10^6 cells/ml, 37° C., 18 hours. The protocol:
as §1

A further data set deals with E. coli, NIHJ. The data set is described as above. Particulars: Escherichia coli, 10^6 cells/ml, 37° C., 18 hours. The format is cell-based. The protocol: as §1
Data set [1] in a line: acute toxicity, i.v. in mice. As to conditions: mouse, in vivo, iv.
For the next data set, the system named is male rats. As to the kind of experiment: repeated intravenous administration to male rats for 10 consecutive days. Format: in vivo. As to conditions: intravenous, 100, 300 or 1,000 mg/kg. An excerpt:
The compounds of this invention are also characterized by low toxicity and, therefore, have a wide safety margin.

In brackets after ≈: the same amount, converted by molar mass. Where a name gives a salt, the structure may show the parent alone.

For orientation: MIC means the smallest concentration in the dilution series that meets the test's criterion for growth inhibition. On to `CO/N=C(\C(=O)N[C@@H]1C(=O)N2C(C(=O)O)=C(COC(C)=O)CS[C@H]12)c1csc(N)n1` [Cefotaxime, Sodium 7β-[2-(2-aminothiazol-4-yl)-2-methoxyiminoacetamido]-3-acetoxymethyl-3-cephem-4-carboxylate (syn isomer), reference compound], for which the MIC is 12.5 mg/L in the data set with Ps. aeruginosa, 32121; below 0.1 mg/L with Pr. vulgaris, 08601; 50 mg/L against Ps. putida, IID 5121; 25 mg/L against Ps. aeruginosa, 32104; 3.13 mg/L against S. aureus, 209P; 12.5 mg/L in the data set with Ps. aeruginosa, 32234. In addition, the MIC was 0.39 mg/L with Ser. marcescens, 10104 and below 0.1 mg/L with E. coli, NIHJ.

Broadly, the LD50 is the dose at which mortality reaches 50%. As to `CO/N=C(\C(=O)N[C@@H]1C(=O)N2C(C(=O)[O-])=C(C[n+]3ccc(-n4ccnc4)cc3)CS[C@H]12)c1csc(N)n1` [Compound A, 7β-[2-(2-Aminothiazol-4-yl)-2-methoxyiminoacetamido]-3-[4-(imidazol-1-yl)-1-pyridinio]methyl-3-cephem-4-carboxylate trihydrochloride (syn isomer)], the median lethal dose (LD50) in data set [1] lay in the range of 2000 to 4000 mg/kg. The MIC in the data set with Ps. aeruginosa, 32121 is 1.56 mg/L; in the data set with Pr. vulgaris, 08601, below 0.1 mg/L; with Ps. putida, IID 5121 it was 1.56 mg/L; with Ps. aeruginosa, 32104, 1.56 mg/L; in the data set on S. aureus, 209P, 0.39 mg/L; in the data set on Ps. aeruginosa, 32234, 1.56 mg/L. In addition, the MIC in the data set on Ser. marcescens, 10104 was below 0.1 mg/L; against E. coli, NIHJ, below 0.1 mg/L.

`CO/N=C(\C(=O)N[C@@H]1C(=O)N2C(C(=O)[O-])=C(C[n+]3ccc(-n4cncn4)cc3)CS[C@H]12)c1csc(N)n1` [Compound B, 7β-[2-(2-Aminothiazol-4-yl)-2-methoxyiminoacetamido]-3-[4-(1,2,4-triazol-1-yl)-1-pyridinio]methyl-3-cephem-4-carboxylate dihydrochloride (syn isomer)]: the minimum inhibitory concentration (MIC) is 0.78 mg/L against Ps. aeruginosa, 32121; below 0.1 mg/L with Pr. vulgaris, 08601; 6.25 mg/L against Ps. putida, IID 5121; 1.56 mg/L against Ps. aeruginosa, 32104; 0.78 mg/L in the data set with S. aureus, 209P; 0.78 mg/L against Ps. aeruginosa, 32234. For the same compound, the minimum inhibitory concentration (MIC) was below 0.1 mg/L in the data set on Ser. marcescens, 10104 and below 0.1 mg/L against E. coli, NIHJ.

Consider `CO/N=C(\C(=O)N[C@@H]1C(=O)N2C(C(=O)[O-])=C(C[n+]3ccc(-c4ncc[nH]4)cc3)CS[C@H]12)c1csc(N)n1` [Compound C, 7β-[2-(2-Aminothiazol-4-yl)-2-methoxyiminoacetamido]-3-[4-(imidazol-2-yl)-1-pyridinio]methyl-3-cephem-4-carboxylate trihydrochloride (syn isomer)], for which the MIC in the data set with Ps. aeruginosa, 32121 is 12.5 mg/L; against Pr. vulgaris, 08601, below 0.1 mg/L; in the data set on Ps. putida, IID 5121, 12.5 mg/L; against Ps. aeruginosa, 32104 it was 25 mg/L; in the data set with S. aureus, 209P it was 0.78 mg/L; with Ps. aeruginosa, 32234, 1.56 mg/L. The MIC is below 0.1 mg/L in the data set with Ser. marcescens, 10104 and below 0.1 mg/L against E. coli, NIHJ.

In turn, `CO/N=C(\C(=O)N[C@@H]1C(=O)N2C(C(=O)[O-])=C(C[n+]3ccc(-c4ncco4)cc3)CS[C@H]12)c1csc(N)n1` [Compound D, 7β-[2-(2-Aminothiazol-4-yl)-2-methoxyiminoacetamido]-3-[4-(oxazol-2-yl)-1-pyridinio]methyl-3-cephem-4-carboxylate (syn isomer)] showed an LD50 in [1] above 4000 mg/kg. For the same compound, the minimal inhibitory concentration (MIC) is 1.56 mg/L (≈ 2.88 µM) against Ps. aeruginosa, 32121; below 0.1 mg/L with Pr. vulgaris, 08601; 3.13 mg/L (≈ 5.78 µM) with Ps. putida, IID 5121; 3.13 mg/L (≈ 5.78 µM) against Ps. aeruginosa, 32104; 0.78 mg/L (≈ 1.44 µM) with S. aureus, 209P; 1.56 mg/L (≈ 2.88 µM) in the data set with Ps. aeruginosa, 32234. Moreover, the MIC in the data set on Ser. marcescens, 10104 is below 0.1 mg/L; against E. coli, NIHJ it was below 0.1 mg/L.

In turn, `CO/N=C(\C(=O)N[C@@H]1C(=O)N2C(C(=O)[O-])=C(C[n+]3ccc(-c4cnco4)cc3)CS[C@H]12)c1csc(N)n1` [Compound E, 7β-[2-(2-Aminothiazol-4-yl)-2-methoxyiminoacetamido]-3-[4-(oxazol-5-yl)-1-pyridinio]methyl-3-cephem-4-carboxylate (syn isomer)] came in with an LD50 in [1] above 4000 mg/kg. Also, the “body weight, clinical examinations, weight of various organs and histological findings” value with male rats is recorded as “no abnormality were observed”. The MIC in the data set with Ps. aeruginosa, 32121 is 0.78 mg/L (≈ 1.44 µM); in the data set with Pr. vulgaris, 08601, below 0.1 mg/L; with Ps. putida, IID 5121, 3.13 mg/L (≈ 5.78 µM); against Ps. aeruginosa, 32104, 1.56 mg/L (≈ 2.88 µM); against S. aureus, 209P it was 0.39 mg/L (≈ 0.72 µM); with Ps. aeruginosa, 32234, 0.78 mg/L (≈ 1.44 µM). The MIC in the data set on Ser. marcescens, 10104 is below 0.1 mg/L; against E. coli, NIHJ it was below 0.1 mg/L.

In turn, `CO/N=C(\C(=O)N[C@@H]1C(=O)N2C(C(=O)[O-])=C(C[n+]3ccc(-c4nnco4)cc3)CS[C@H]12)c1csc(N)n1` [Compound F, 7β-[2-(2-Aminothiazol-4-yl)-2-methoxyiminoacetamido]-3-[4-(1,3,4-oxadiazol-2-yl)-1-pyridinio]-methyl-3-cephem-4-carboxylate (syn isomer)] gave a 50% lethal dose (LD50) in data set [1] above 4000 mg/kg. In addition, the MIC in the data set with Ps. aeruginosa, 32121 amounted to 0.78 mg/L (≈ 1.44 µM); against Pr. vulgaris, 08601 it was 0.1 mg/L (≈ 0.184 µM); in the data set on Ps. putida, IID 5121 it was 1.56 mg/L (≈ 2.88 µM); against Ps. aeruginosa, 32104 it was 0.78 mg/L (≈ 1.44 µM); against S. aureus, 209P it was 0.39 mg/L (≈ 0.719 µM); in the data set with Ps. aeruginosa, 32234 it was 0.78 mg/L (≈ 1.44 µM). The minimal inhibitory concentration (MIC) against Ser. marcescens, 10104 is below 0.1 mg/L; against E. coli, NIHJ it was below 0.1 mg/L.

In the case of `CO/N=C(\C(=O)N[C@@H]1C(=O)N2C(C(=O)[O-])=C(C[n+]3cccc(-c4cnco4)c3)CS[C@H]12)c1csc(N)n1` [Compound G, 7β-[2-(2-Aminothiazol-4-yl)-2-methoxyiminoacetamido]-3-[3-(oxazol-5-yl)-1-pyridinio]methyl-3-cephem-4-carboxylate (syn isomer)], the MIC in the data set on Ps. aeruginosa, 32121 came out at 1.56 mg/L (≈ 2.88 µM); against Pr. vulgaris, 08601, 0.1 mg/L (≈ 0.185 µM); against Ps. putida, IID 5121, 12.5 mg/L (≈ 23.1 µM); in the data set with Ps. aeruginosa, 32104 it was 3.13 mg/L (≈ 5.78 µM); with S. aureus, 209P it was 0.39 mg/L (≈ 0.72 µM); against Ps. aeruginosa, 32234, 1.56 mg/L (≈ 2.88 µM). The MIC with Ser. marcescens, 10104 is below 0.1 mg/L; in the data set with E. coli, NIHJ, below 0.1 mg/L.

Turning to `CO/N=C(\C(=O)N[C@@H]1C(=O)N2C(C(=O)[O-])=C(C[n+]3ccc(-c4csnn4)cc3)CS[C@H]12)c1csc(N)n1` [Compound H, 7β-[2-(2-Aminothiazol-4-yl)-2-methoxyiminoacetamido]-3-[4-(1,2,3-thiadiazol-4-yl)-1-pyridinio]methyl-3-cephem-4-carboxylate dihydrochloride (syn isomer)], the MIC in the data set with Ps. aeruginosa, 32121 was 1.56 mg/L; in the data set with Pr. vulgaris, 08601, below 0.1 mg/L; against Ps. putida, IID 5121, 12.5 mg/L; against Ps. aeruginosa, 32104, 1.56 mg/L; in the data set on S. aureus, 209P it was 0.39 mg/L; with Ps. aeruginosa, 32234 it was 0.78 mg/L. Also, the MIC with Ser. marcescens, 10104 was below 0.1 mg/L; against E. coli, NIHJ, below 0.1 mg/L.
